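Values below derive from 48-hour exposures of cells grown in 96-well plates, with endpoints linearly interpolated between the two concentrations bracketing the appropriate inhibition level. At the TGI there is no net growth.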
How the values were obtained:
Assay in all cases: NCI tumour cell line growth inhibition, 48 h
[1] = test system: HCT-116 colon
[2] = test system: KM12 colon
[3] = test system: HCC-2998 colon
[4] = test system: SR leukemia
[5] = test system: NCI/ADR-RES ovarian
[6] = test system: SF-295 CNS
[7] = test system: PC-3 prostate
[8] = test system: NCI-H522 lung
[9] = test system: HT29 colon
[10] = test system: SF-268 CNS
[11] = test system: OVCAR-3 ovarian
[12] = test system: RPMI-8226 leukemia
[13] = test system: NCI-H23 lung
[14] = test system: HCT-15 colon
[15] = test system: MDA-N
[16] = test system: A549 NSCLC
[17] = test system: UACC-62 melanoma
[18] = test system: UO-31 renal
[19] = test system: EKVX NSCLC
[20] = test system: HOP-92 NSCLC
[21] = test system: SK-MEL-5 melanoma
[22] = test system: HOP-62 NSCLC
[23] = test system: A498 renal
[24] = test system: BT-549 breast
[25] = test system: MOLT-4 leukemia
[26] = test system: NCI-H226 lung
[27] = test system: T-47D breast
[28] = test system: SK-MEL-2 melanoma
[29] = test system: LOX IMVI melanoma
[30] = test system: U251 CNS
[31] = test system: SN12C renal
[32] = test system: MDA-MB-231 breast
[33] = test system: 786-0 renal
[34] = test system: OVCAR-8 ovarian
[35] = test system: DU-145 prostate
[36] = test system: CCRF-CEM leukemia
[37] = test system: SNB-75 CNS
[38] = test system: SF-539 CNS
[39] = test system: UACC-257 melanoma
[40] = test system: MALME-3M melanoma
[41] = test system: SK-OV-3 ovarian
[42] = test system: IGROV1 ovarian
[43] = test system: OVCAR-5 ovarian
[44] = test system: NCI-H460 lung
[45] = test system: K-562 leukemia
[46] = test system: RXF 393 renal
[47] = test system: HS 578T breast
[48] = test system: SNB-19 CNS
[49] = test system: OVCAR-4 ovarian
[50] = test system: MCF7 breast
[51] = test system: HL-60(TB) leukemia
[52] = test system: MDA-MB-435
[53] = test system: COLO 205 colon
[54] = test system: ACHN renal
[55] = test system: SW-620 colon
[56] = test system: CAKI-1 renal
[57] = test system: TK-10 renal
[58] = test system: SK-MEL-28 melanoma
[59] = test system: M14 melanoma

Nc1nc(Cl)cc(NCC2(O)CC(CO)C2)n1 (stereo not drawn)
TGI [1]: > 100 µM | TGI [2]: > 100 µM | TGI [3]: > 100 µM | TGI [4]: > 100 µM | TGI [5]: > 100 µM | TGI [6]: > 100 µM | TGI [7]: > 100 µM | TGI [8]: > 100 µM | TGI [9]: > 100 µM | TGI [10]: > 100 µM | TGI [11]: > 100 µM | TGI [12]: > 100 µM | TGI [13]: > 100 µM | TGI [14]: > 100 µM | TGI [15]: > 100 µM | TGI [16]: > 100 µM | TGI [17]: > 100 µM | TGI [18]: > 100 µM | TGI [19]: > 100 µM | TGI [20]: > 100 µM | TGI [21]: > 100 µM | TGI [22]: > 100 µM | TGI [23]: > 100 µM | TGI [24]: > 100 µM | TGI [25]: > 100 µM | TGI [26]: > 100 µM | TGI [27]: > 100 µM | TGI [28]: > 100 µM | TGI [29]: > 100 µM | TGI [30]: > 100 µM | TGI [31]: > 100 µM | TGI [32]: > 100 µM | TGI [33]: > 100 µM | TGI [34]: > 100 µM | TGI [35]: > 100 µM | TGI [36]: > 100 µM | TGI [37]: > 100 µM | TGI [38]: > 100 µM | TGI [39]: > 100 µM | TGI [40]: > 100 µM | TGI [41]: > 100 µM | TGI [42]: > 100 µM | TGI [43]: > 100 µM | TGI [44]: > 100 µM | TGI [45]: > 100 µM | TGI [46]: > 100 µM | TGI [47]: > 100 µM | TGI [48]: > 100 µM | TGI [49]: > 100 µM | TGI [50]: > 100 µM | TGI [51]: > 100 µM | TGI [52]: > 100 µM | TGI [53]: > 100 µM | TGI [54]: > 100 µM | TGI [55]: > 100 µM | TGI [56]: > 100 µM | TGI [57]: > 100 µM | TGI [58]: > 100 µM

CC[C@@]1(O)C(=O)OCc2c1cc1n(c2=O)Cc2c-1nc1ccccc1c2/C=N\NC(=O)C(N)CC(C)C (stereo partly drawn)
TGI [59]: 0.648 µM | TGI [1]: 5.37 µM | TGI [3]: 6.17 µM | TGI [4]: < 0.0109 µM | TGI [5]: 0.856 µM | TGI [6]: 0.694 µM | TGI [7]: > 100 µM | TGI [8]: 1.6 µM | TGI [9]: > 100 µM | TGI [10]: 3.68 µM | TGI [11]: 2.3 µM | TGI [12]: 3.71 µM | TGI [13]: 0.112 µM | TGI [14]: > 36.2 µM | TGI [15]: > 100 µM | TGI [16]: 2.16 µM | TGI [17]: 0.0748 µM | TGI [18]: 0.201 µM | TGI [19]: > 100 µM | TGI [20]: 5.35 µM | TGI [21]: 0.0807 µM | TGI [22]: 0.382 µM | TGI [23]: 0.263 µM | TGI [24]: > 100 µM | TGI [25]: 0.106 µM | TGI [26]: 0.975 µM | TGI [27]: > 100 µM | TGI [28]: 2.99 µM | TGI [29]: 0.244 µM | TGI [30]: 0.646 µM | TGI [31]: 1.61 µM | TGI [32]: > 100 µM | TGI [33]: > 100 µM | TGI [34]: 1.44 µM | TGI [35]: > 100 µM | TGI [36]: 0.629 µM | TGI [37]: < 0.0248 µM | TGI [39]: 1.81 µM | TGI [40]: 7.31 µM | TGI [42]: > 22 µM | TGI [43]: > 68.6 µM | TGI [44]: 1.26 µM | TGI [45]: > 100 µM | TGI [46]: 0.154 µM | TGI [47]: > 100 µM | TGI [48]: > 100 µM | TGI [49]: > 100 µM | TGI [50]: > 100 µM | TGI [51]: > 100 µM | TGI [52]: 2.8 µM | TGI [53]: 12.1 µM | TGI [55]: > 40.2 µM | TGI [56]: 0.181 µM | TGI [57]: > 100 µM | TGI [58]: > 100 µM
